Seven compounds from ChEMBL document CHEMBL1201862, “PubChem BioAssay data set” (2004) can be followed below.

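Grown in 96-well plates, cells were treated for 48 hours with each compound at five concentrations. Insufficient inhibition: endpoint recorded as highest concentration tested. GI50 = concentration required for 50% inhibition of growth.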 Calls of active or inactive are those of the source. No stated cut-off is given here; in the data, active = GI50 up to about 1.1 µM and inactive = higher.

Among the test systems are A498; A549; CAKI-1; EKVX; HCC 2998; HCT-15; HOP-62; HT-29; IGROV-1; K562; LOX IMVI; MOLT-4; NCI-H226; NCI-H460; OVCAR-4; RXF 393; SF-268; SF-295; SN12C; TK-10.
Holding throughout (test): NCI anticancer screen, dose series, 48 h

Regarding `COc1cccc2c1C(=O)c1c(O)c3c(c(O)c1C2=O)C[C@@](O)(C(=O)CO)C[C@@H]3OC1CC(N2CCOCC2)C(O)C(C)O1` (some centres undefined), the GI50 in the experiment on A498 is 0.00315 µM (active); with A549 it was 0.00628 µM (active); in the experiment with CAKI-1, 0.00948 µM (active); in the experiment with EKVX, 0.0159 µM (active); in the experiment with HCC 2998, 0.0127 µM (active); with HCT-15 it was 0.00315 µM. Moreover, the GI50 in the experiment with HOP-62 was 0.0199 µM (active); in the experiment on HT-29, 0.00628 µM (active); in the experiment with IGROV-1 it was 0.0131 µM (active); in the experiment on K562 it was 0.0025 µM (active); with LOX IMVI it was 0.0025 µM (active); in the experiment with MOLT-4, 0.00333 µM (active). In addition, the GI50 in the experiment on NCI-H226 is 0.00562 µM (active); with NCI-H460, 0.0025 µM (active); in the experiment with OVCAR-4 it was 0.0201 µM (active); in the experiment on RXF 393 it was 0.00396 µM (active); in the experiment with SF-268 it was 0.0239 µM (active); with SF-295, 0.0025 µM (active). Moreover, the GI50 is 0.0156 µM (active) in the experiment on SN12C and 0.0485 µM (active) with TK-10.

As to `Cc1ccc2oc3c(ccc(=O)n3C)c(=O)c2c1`, the GI50 is > 100 µM (inactive) in the experiment on A498; > 100 µM (inactive) with A549; > 100 µM (inactive) with CAKI-1; 89.7 µM (inactive) with EKVX; > 100 µM (inactive) in the experiment with HCC 2998; over 100 µM in the experiment with HCT-15. Also, the GI50 in the experiment with HOP-62, in the experiment on HT-29, with IGROV-1, with K562, in the experiment on LOX IMVI and in the experiment with NCI-H226 was > 100 µM (inactive) throughout. Also, the GI50 in the experiment with NCI-H460, in the experiment on OVCAR-4, with RXF 393, in the experiment with SF-268, with SF-295 and in the experiment with SN12C was > 100 µM (inactive) in each case. In addition, the GI50 in the experiment with TK-10 was > 100 µM (inactive).

Regarding `COC(=O)c1ccccc1/N=C(/NC1CCCCCC1)NS(=O)(=O)c1ccc(C)cc1`, the GI50 is > 100 µM (inactive) in the experiment with A498; > 100 µM (inactive) in the experiment on A549; 74.5 µM (inactive) in the experiment on CAKI-1; > 100 µM (inactive) in the experiment on EKVX; > 100 µM (inactive) with HCC 2998; over 100 µM with HCT-15. Besides, the GI50 is 99.3 µM (inactive) in the experiment on HOP-62; > 100 µM (inactive) with HT-29; > 100 µM (inactive) in the experiment on IGROV-1; > 100 µM (inactive) in the experiment with K562; > 100 µM (inactive) with LOX IMVI; > 100 µM (inactive) in the experiment with MOLT-4. The GI50 in the experiment with NCI-H226 was > 100 µM (inactive); in the experiment on NCI-H460, > 100 µM (inactive); with OVCAR-4 it was > 100 µM (inactive); with RXF 393 it was > 100 µM (inactive); in the experiment with SF-268 it was > 100 µM (inactive); in the experiment on SF-295 it was 26.4 µM (inactive). The GI50 in the experiment with SN12C and in the experiment with TK-10 was > 100 µM (inactive) each time.

Regarding `OC1(c2ccccc2)CC2CCC(C1)N2CCc1ccccc1` (centres undefined), the GI50 in the experiment with A498 was 19 µM (inactive); with A549, 49.8 µM (inactive); in the experiment on CAKI-1, 53.2 µM (inactive); in the experiment with EKVX, 97.5 µM (inactive); in the experiment on HCC 2998, 58.3 µM (inactive); in the experiment on HCT-15 it was 89.9 µM. The GI50 in the experiment with HOP-62 was 45.4 µM (inactive); in the experiment on HT-29, 23.8 µM (inactive); in the experiment with IGROV-1 it was 86.3 µM (inactive); in the experiment on K562, 45.5 µM (inactive); in the experiment on LOX IMVI it was 54.7 µM (inactive); with MOLT-4, 29.7 µM (inactive). The GI50 with NCI-H226 is 61 µM (inactive); with NCI-H460, 58.9 µM (inactive); in the experiment with OVCAR-4, 72.8 µM (inactive); with RXF 393, > 100 µM (inactive); in the experiment with SF-268, > 100 µM (inactive); in the experiment on SF-295, 34.6 µM (inactive). For the same compound, the GI50 in the experiment with SN12C and with TK-10 was > 100 µM (inactive) throughout.

For `O=c1cc(-c2cc(O)c(O)c(-c3c(O)cc4oc(-c5ccc(O)c(O)c5)cc(=O)c4c3O)c2)oc2cc(O)cc(O)c12`, the GI50 in the experiment with A498 was > 25 µM (inactive); in the experiment with A549, > 25 µM (inactive); with CAKI-1, > 25 µM (inactive); in the experiment on EKVX, > 25 µM (inactive); in the experiment with HCC 2998, > 25 µM (inactive); in the experiment on HCT-15, over 25 µM. Besides, the GI50 in the experiment on HOP-62, in the experiment on HT-29, with IGROV-1, with K562, in the experiment with LOX IMVI and in the experiment with MOLT-4 was > 25 µM (inactive) in each case. The GI50 in the experiment on NCI-H226, in the experiment on NCI-H460, in the experiment on OVCAR-4, in the experiment on RXF 393, in the experiment on SF-268 and in the experiment on SF-295 was > 25 µM (inactive) each time. For the same compound, the GI50 in the experiment on SN12C and in the experiment with TK-10 was > 25 µM (inactive) each time.

Regarding `NC1=C(C(=O)O)C(=O)C(Nc2c(O)cccc2C(=O)O)=CC1=O`, the GI50 in the experiment with A498 is > 100 µM (inactive); in the experiment on A549, > 100 µM (inactive); with CAKI-1, > 100 µM (inactive); with EKVX it was > 100 µM (inactive); in the experiment with HCC 2998 it was 31.6 µM (inactive); with HCT-15, over 100 µM. Also, the GI50 in the experiment with HOP-62, with HT-29, in the experiment with IGROV-1, in the experiment on K562, in the experiment on LOX IMVI and in the experiment with MOLT-4 was > 100 µM (inactive) in each case. Also, the GI50 with NCI-H226 was > 100 µM (inactive); with NCI-H460, 10 µM (inactive); in the experiment on OVCAR-4 it was > 100 µM (inactive); in the experiment with RXF 393, 31.6 µM (inactive); with SF-268, 1 µM (active); with SF-295 it was 43 µM (inactive). In addition, the GI50 in the experiment on SN12C and with TK-10 was > 100 µM (inactive) throughout.

For the compound `CC1CCC2N(C1)CC1C3(O)CC45OC6(O)C(O)CCC4(C)C6CCC5C3(O)CC(O)C1(O)C2(C)O` (centres undefined), the GI50 with A498 is > 77.6 µM (inactive); in the experiment on A549, > 100 µM (inactive); in the experiment with CAKI-1, > 100 µM (inactive); in the experiment with EKVX it was > 100 µM (inactive); in the experiment with HCC 2998, > 100 µM (inactive); in the experiment with HCT-15, over 100 µM. For the same compound, the GI50 in the experiment with HOP-62, with HT-29, in the experiment on IGROV-1, in the experiment with K562, in the experiment with LOX IMVI and in the experiment on MOLT-4 was > 100 µM (inactive) in each case. The GI50 in the experiment on NCI-H226, with NCI-H460, with OVCAR-4, in the experiment on RXF 393, with SF-268 and in the experiment on SF-295 was > 100 µM (inactive) each time. For the same compound, the GI50 in the experiment with SN12C and in the experiment with TK-10 was > 100 µM (inactive) throughout.
